Reference: patent publication US9708314B2, “Heterocyclic amide compound” (NISSAN CHEMICAL INDUSTRIES, LTD., priority 2013, dated 2017)

Tests used:
Format in all cases: in vivo
Triticum aestivum = test: Test Example 4: effect on crop by application to foliage (diluvial soil, plastic box); settings: for e: effect on crop, Triticum aestivum: application to foliage, application herbicide amount 320 g/ha; for e (Triticum aestivum) effect on crop grade: foliage application
Outline: (§1)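 Emulsion-formulated compound, diluted to a predetermined g/ha dose, applied by small sprayer to leaves and stems of 14-day-old seedlings grown in sterilized diluvial soil. Effect rated on 0–5 herbicidal-ratio scale three weeks on.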

Brassica campestris L. = test: as above; settings: for g: effect on crop, Brassica campestris L.: application to foliage, application herbicide amount 320 g/ha; for g (Brassica campestris L.) effect on crop grade: foliage application
Outline: as §1

[1] = tested on: directly sowed Oryza sativa; test: as above; settings: for b: effect on crop, directly sowed Oryza sativa: application to foliage, application herbicide amount 320 g/ha; for b (directly sowed Oryza sativa) effect on crop grade: Application herbicide amount 320 g/ha
Outline: as §1

Zea mays = test: as above; settings: for c: effect on crop, Zea mays: application to foliage, application herbicide amount 320 g/ha; for c (Zea mays) effect on crop grade: Application herbicide amount 320 g/ha
Outline: as §1

[2] = tested on: Beta vulgaris ssp. vulgaris; test: as above; settings: for f: effect on crop, Beta vulgaris ssp. vulgaris: application to foliage, application herbicide amount 320 g/ha; for f (Beta vulgaris ssp. vulgaris) effect on crop grade: foliage application
Outline: as §1

[3] = tested on: transplanted Oryza sativa; test: Test Example 1: effect on crop, application before weed generation in submerged conditions; settings: Application herbicide amount 320 g/ha; Seventeenth Table
Outline: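 Rating, on a six-step scale from almost no effect (0) to almost completely withered (5), was made three weeks after pre-emergence treatment. Treatment was surface application to flooded pots at g/ha rates, with plants kept at 25° C. to 30° C.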

Scirpus juncoides = test: Test Example 2: herbicidal activity, application during weed generation in submerged conditions; settings: Eighteenth Table; application herbicide amount 320 g/ha
Outline: (§2)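 Post-emergence application under submerged conditions: water-diluted emulsion dosed onto the water surface (g/ha) when weeds reach one- to two-leaf stage. Soil flooded to 4 cm; greenhouse 25–30 °C. Herbicidal ratio graded in six classes, 0 (≤5%) to 5 (≥90%), at three weeks.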

Monochoria vaginalis = test: as above; settings: Eighteenth Table; application herbicide amount 320 g/ha
Outline: as §2

[4] = tested on: Echinochloa oryzacola Vasing.; test: as above; settings: Eighteenth Table; application herbicide amount 320 g/ha
Outline: as §2

[5] = Application herbicide amount 320 g/ha

## CCC(CC)c1nnc2c(C(=O)Nc3nnnn3C)ccc(C(F)(F)F)n12 [2-006]
Triticum aestivum
  e: effect on crop, Triticum aestivum: 3 (Herbicidal ratio of 40% or more and less than 70%)
Brassica campestris L.
  g: effect on crop, Brassica campestris L.: 4 (Herbicidal ratio of 70% or more and less than 90%)
[1]
  b: effect on crop, directly sowed Oryza sativa: 5 (Herbicidal ratio of 90% or more (almost completely withered))
Zea mays
  c: effect on crop, Zea mays: 1 (Herbicidal ratio of 5% or more and less than 20%)
[2]
  f: effect on crop, Beta vulgaris ssp. vulgaris: 5 (Herbicidal ratio of 90% or more (almost completely withered))
[3]
  a: transplanted Oryza sativa (effect on crop grade): 4 (Herbicidal ratio of 70% or more and less than 90%)
Scirpus juncoides
  B (Scirpus juncoides) herbicidal ratio grade: 5 (Herbicidal ratio of 90% or more (almost completely withered))
Monochoria vaginalis
  C (Monochoria vaginalis) herbicidal ratio grade: 5 (Herbicidal ratio of 90% or more (almost completely withered))
[4]
  A (Echinochloa oryzicola Vasing.) herbicidal ratio grade: 5 (Herbicidal ratio of 90% or more (almost completely withered))

## Cc1nnc(NC(=O)c2ccc(C(F)(F)F)n3c(N4CCSCC4)nnc23)o1 [1-118]
Triticum aestivum; [5]
  e (Triticum aestivum) effect on crop grade: 1 (Herbicidal ratio of 5% or more and less than 20%)
Brassica campestris L.; [5]
  g (Brassica campestris L.) effect on crop grade: 5 (Herbicidal ratio of 90% or more (almost completely withered))
[1]; foliage application
  b (directly sowed Oryza sativa) effect on crop grade: 4 (Herbicidal ratio of 70% or more and less than 90%)
Zea mays; foliage application
  c (Zea mays) effect on crop grade: 0 (Herbicidal ratio of 5% or less (almost no effect))
[2]; [5]
  f (Beta vulgaris ssp. vulgaris) effect on crop grade: 5 (Herbicidal ratio of 90% or more (almost completely withered))
[3]
  a: transplanted Oryza sativa (effect on crop grade): 2 (Herbicidal ratio of 20% or more and less than 40%)
Scirpus juncoides
  B (Scirpus juncoides) herbicidal ratio grade: 3 (Herbicidal ratio of 40% or more and less than 70%)
Monochoria vaginalis
  C (Monochoria vaginalis) herbicidal ratio grade: 0 (Herbicidal ratio of 5% or less (almost no effect))
[4]
  A (Echinochloa oryzicola Vasing.) herbicidal ratio grade: 2 (Herbicidal ratio of 20% or more and less than 40%)

## Cn1nnnc1NC(=O)c1ccc(C(F)(F)F)n2c(C3CC3)nnc12 [2-005]
Triticum aestivum
  e: effect on crop, Triticum aestivum: 3 (Herbicidal ratio of 40% or more and less than 70%)
Brassica campestris L.
  g: effect on crop, Brassica campestris L.: 4 (Herbicidal ratio of 70% or more and less than 90%)
[1]
  b: effect on crop, directly sowed Oryza sativa: 0 (Herbicidal ratio of 5% or less (almost no effect))
Zea mays
  c: effect on crop, Zea mays: 1 (Herbicidal ratio of 5% or more and less than 20%)
[2]
  f: effect on crop, Beta vulgaris ssp. vulgaris: 5 (Herbicidal ratio of 90% or more (almost completely withered))
[3]
  a: transplanted Oryza sativa (effect on crop grade): 0 (Herbicidal ratio of 5% or less (almost no effect))
Scirpus juncoides
  B (Scirpus juncoides) herbicidal ratio grade: 3 (Herbicidal ratio of 40% or more and less than 70%)
Monochoria vaginalis
  C (Monochoria vaginalis) herbicidal ratio grade: 4 (Herbicidal ratio of 70% or more and less than 90%)
[4]
  A (Echinochloa oryzicola Vasing.) herbicidal ratio grade: 5 (Herbicidal ratio of 90% or more (almost completely withered))

## CSCc1nnc2c(C(=O)Nc3nnnn3C)ccc(C(F)(F)F)n12 [2-029]
Triticum aestivum; 320 g/ha
  e (Triticum aestivum) effect on crop grade: 5 (Herbicidal ratio of 90% or more (almost completely withered))
Brassica campestris L.; 320 g/ha
  g (Brassica campestris L.) effect on crop grade: 5 (Herbicidal ratio of 90% or more (almost completely withered))
[1]; foliage application, 320 g/ha
  d (directly sowed Oryza sativa) effect on crop grade: 5 (Herbicidal ratio of 90% or more (almost completely withered))
Zea mays; foliage application, 320 g/ha
  b (Zea mays) effect on crop grade: 5 (Herbicidal ratio of 90% or more (almost completely withered))
[2]; 320 g/ha
  f (Beta vulgaris ssp. vulgaris) effect on crop grade: 5 (Herbicidal ratio of 90% or more (almost completely withered))
[3]
  a: transplanted Oryza sativa (effect on crop grade): 5 (Herbicidal ratio of 90% or more (almost completely withered))
Scirpus juncoides
  B (Scirpus juncoides) herbicidal ratio grade: 4 (Herbicidal ratio of 70% or more and less than 90%)
Monochoria vaginalis
  C (Monochoria vaginalis) herbicidal ratio grade: 4 (Herbicidal ratio of 70% or more and less than 90%)
[4]
  A (Echinochloa oryzicola Vasing.) herbicidal ratio grade: 5 (Herbicidal ratio of 90% or more (almost completely withered))

## COc1cc(OC)cc(-c2nnc3c(C(=O)Nc4nnco4)ccc(C(F)(F)F)n23)c1 [1-148]
Triticum aestivum; [5]
  e (Triticum aestivum) effect on crop grade: 0 (Herbicidal ratio of 5% or less (almost no effect))
Brassica campestris L.; [5]
  g (Brassica campestris L.) effect on crop grade: 4 (Herbicidal ratio of 70% or more and less than 90%)
[1]; foliage application
  b (directly sowed Oryza sativa) effect on crop grade: 3 (Herbicidal ratio of 40% or more and less than 70%)
Zea mays; foliage application
  c (Zea mays) effect on crop grade: 0 (Herbicidal ratio of 5% or less (almost no effect))
[2]; [5]
  f (Beta vulgaris ssp. vulgaris) effect on crop grade: 5 (Herbicidal ratio of 90% or more (almost completely withered))
[3]
  a: transplanted Oryza sativa (effect on crop grade): 4 (Herbicidal ratio of 70% or more and less than 90%)
Scirpus juncoides
  B (Scirpus juncoides) herbicidal ratio grade: 5 (Herbicidal ratio of 90% or more (almost completely withered))
Monochoria vaginalis
  C (Monochoria vaginalis) herbicidal ratio grade: 4 (Herbicidal ratio of 70% or more and less than 90%)
[4]
  A (Echinochloa oryzicola Vasing.) herbicidal ratio grade: 5 (Herbicidal ratio of 90% or more (almost completely withered))

## O=C(Nc1nnco1)c1ccc(C(F)(F)F)n2c(-c3ccc(F)cc3)nnc12 [1-147]
Triticum aestivum; [5]
  e (Triticum aestivum) effect on crop grade: 3 (Herbicidal ratio of 40% or more and less than 70%)
Brassica campestris L.; [5]
  g (Brassica campestris L.) effect on crop grade: 5 (Herbicidal ratio of 90% or more (almost completely withered))
[1]; foliage application
  b (directly sowed Oryza sativa) effect on crop grade: 0 (Herbicidal ratio of 5% or less (almost no effect))
Zea mays; foliage application
  c (Zea mays) effect on crop grade: 0 (Herbicidal ratio of 5% or less (almost no effect))
[2]; [5]
  f (Beta vulgaris ssp. vulgaris) effect on crop grade: 5 (Herbicidal ratio of 90% or more (almost completely withered))
[3]
  a: transplanted Oryza sativa (effect on crop grade): 2 (Herbicidal ratio of 20% or more and less than 40%)
Scirpus juncoides
  B (Scirpus juncoides) herbicidal ratio grade: 2 (Herbicidal ratio of 20% or more and less than 40%)
Monochoria vaginalis
  C (Monochoria vaginalis) herbicidal ratio grade: 3 (Herbicidal ratio of 40% or more and less than 70%)
[4]
  A (Echinochloa oryzicola Vasing.) herbicidal ratio grade: 4 (Herbicidal ratio of 70% or more and less than 90%)

## Cn1nnnc1NC(=O)c1ccc(C(F)(F)F)n2c(Br)nnc12 [2-009]
Triticum aestivum
  e: effect on crop, Triticum aestivum: 1 (Herbicidal ratio of 5% or more and less than 20%)
Brassica campestris L.
  g: effect on crop, Brassica campestris L.: 4 (Herbicidal ratio of 70% or more and less than 90%)
[1]
  b: effect on crop, directly sowed Oryza sativa: 2 (Herbicidal ratio of 20% or more and less than 40%)
Zea mays
  c: effect on crop, Zea mays: 1 (Herbicidal ratio of 5% or more and less than 20%)
[2]
  f: effect on crop, Beta vulgaris ssp. vulgaris: 5 (Herbicidal ratio of 90% or more (almost completely withered))
[3]
  a: transplanted Oryza sativa (effect on crop grade): 0 (Herbicidal ratio of 5% or less (almost no effect))
Scirpus juncoides
  B (Scirpus juncoides) herbicidal ratio grade: 2 (Herbicidal ratio of 20% or more and less than 40%)
Monochoria vaginalis
  C (Monochoria vaginalis) herbicidal ratio grade: 3 (Herbicidal ratio of 40% or more and less than 70%)
[4]
  A (Echinochloa oryzicola Vasing.) herbicidal ratio grade: 3 (Herbicidal ratio of 40% or more and less than 70%)

## Cc1nnc(NC(=O)c2ccc(C(F)(F)F)n3c(C4(C)CC4(Cl)Cl)nnc23)o1 (stereo not drawn) [1-105]
Triticum aestivum; [5]
  e (Triticum aestivum) effect on crop grade: 1 (Herbicidal ratio of 5% or more and less than 20%)
Brassica campestris L.; [5]
  g (Brassica campestris L.) effect on crop grade: 3 (Herbicidal ratio of 40% or more and less than 70%)
[1]; foliage application
  b (directly sowed Oryza sativa) effect on crop grade: 0 (Herbicidal ratio of 5% or less (almost no effect))
Zea mays; foliage application
  c (Zea mays) effect on crop grade: 1 (Herbicidal ratio of 5% or more and less than 20%)
[2]; [5]
  f (Beta vulgaris ssp. vulgaris) effect on crop grade: 4 (Herbicidal ratio of 70% or more and less than 90%)
[3]
  a: transplanted Oryza sativa (effect on crop grade): 0 (Herbicidal ratio of 5% or less (almost no effect))
Scirpus juncoides
  B (Scirpus juncoides) herbicidal ratio grade: 4 (Herbicidal ratio of 70% or more and less than 90%)
Monochoria vaginalis
  C (Monochoria vaginalis) herbicidal ratio grade: 3 (Herbicidal ratio of 40% or more and less than 70%)
[4]
  A (Echinochloa oryzicola Vasing.) herbicidal ratio grade: 3 (Herbicidal ratio of 40% or more and less than 70%)

## O=C(Nc1nnco1)c1ccc(C(F)(F)F)n2c(C3CC3)nnc12 [1-144]
Triticum aestivum; [5]
  e (Triticum aestivum) effect on crop grade: 1 (Herbicidal ratio of 5% or more and less than 20%)
Brassica campestris L.; [5]
  g (Brassica campestris L.) effect on crop grade: 4 (Herbicidal ratio of 70% or more and less than 90%)
[1]; foliage application
  b (directly sowed Oryza sativa) effect on crop grade: 0 (Herbicidal ratio of 5% or less (almost no effect))
Zea mays; foliage application
  c (Zea mays) effect on crop grade: 0 (Herbicidal ratio of 5% or less (almost no effect))
[2]; [5]
  f (Beta vulgaris ssp. vulgaris) effect on crop grade: 5 (Herbicidal ratio of 90% or more (almost completely withered))
[3]
  a: transplanted Oryza sativa (effect on crop grade): 1 (Herbicidal ratio of 5% or more and less than 20%)
Scirpus juncoides
  B (Scirpus juncoides) herbicidal ratio grade: 4 (Herbicidal ratio of 70% or more and less than 90%)
Monochoria vaginalis
  C (Monochoria vaginalis) herbicidal ratio grade: 3 (Herbicidal ratio of 40% or more and less than 70%)
[4]
  A (Echinochloa oryzicola Vasing.) herbicidal ratio grade: 4 (Herbicidal ratio of 70% or more and less than 90%)
